This is an account of results in patent US20260042764A1, “COMPOSITIONS AND METHODS FOR INHIBITION OF KRAS” (TheRas, Inc., priority 2022, published 2026).

Assay [1] concerns the target T1, Avi-KRAS G12V (1-169) GppNHp/RAF1 RBD-3xFLAG (52-151) (Homo sapiens, UniProt P01116, G12V).
T1 construct: Avi-KRAS G12V (1-169)
Briefly: Raf1-KRAS G12V-GppNHP disruption HTRF assay (Biological Example 1). The format is binding. The note with it: KRAS G12V, GppNHp-loaded; Table 11. The essentials:
(§1)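 Percent activity versus DMSO (100%) was derived from HTRF signal after KRAS–RAF1 RBD protein mix was incubated 1 h at room temperature with shaking and detection reagents were added for a further 1 h.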
A general note: TR-FRET usually uses a lanthanide donor and a delayed reading to cut background.

The test system of another assay is HPAC cells (KRAS G12D). The assay is described as follows: 3D Cell viability assay in HPAC cells (Biological Example 6). Type of assay: cell-based. The note with it: Homo sapiens, HPAC, 72 h, HPAC (KRAS G12D) spheroids. On the procedure:
(§2) Biological Example 6: 3D Cell viability assay in AsPC-1, SW1900, HPAC, Capan-2, RKN, H358, HCT116, KP-2, H1573, A549, MKN1, and HT1080 cells
(§3) The inhibition of cellular viability as a result of test compound treatment in a spheroid assay was measured using the CellTiter-Glow 3D Cell Viability Assay (Promega).
(§4) On Day 1, 1000 cells per well were seeded in 150 μL of complete growth media supplemented with 10% fetal bovine serum (FBS) and incubated at 37° C., in the presence of 5% CO2 in 96-well ultra-low attachment microplates (Corning) for 48 hours undisturbed to allow spheroids to form.
(§5) Following spheroid formation, cells were treated with compounds diluted in DMSO at 0.25% final DMSO concentration. Compounds were dosed in a 9-point concentration curve with three-fold dilution between concentrations. Cells were incubated in the presence of compound for 72 hours at 37° C., in the presence of 5% CO2.
(§6) Following this incubation period, the kit-provided CTG reagent was allowed to equilibrate for 30 minutes at room temperature, 150 μL of equilibrated CTG reagent was added to each well, and the plate was sealed before shaking at 250 rpm for 10 minutes at room temperature to lyse the cells, 150 μL of lysate per well was transferred to a 96-well plate and luminescence was read on a CLARIOstar plate reader.
(§7) Data was imported into the Prism software package (Graphpad) and EC50 values were calculated using the log (inhibitor) vs, response—variable slope (Four parameters) model.

Assay [2] concerns the target T2, Avi-KRAS WT (1-169) GppNHp/RAF1 RBD-3xFLAG (52-151) (Homo sapiens, UniProt P01116).
T2 construct: Avi-KRAS WT (1-169)
Briefly: Raf1-KRAS WT-GppNHP disruption HTRF assay (Biological Example 1). The note with it: KRAS WT, GppNHp-loaded; Table 11. Type of assay: binding. Put shortly: as §1

The test system of a further assay is GP2d cells (KRAS G12D). Briefly: Cell-based pERK HTRF assay in GP2d cell (Biological Example 2). The note with it: GP2d, GP2d (KRAS G12D) cells. The essentials: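 Treatment with test compounds lasted one hour in DMEM containing 10% FBS, with DMSO held at 0.25%. Dilution series: 9 points, half-log spacing, highest 1 μM or 100 nM. Lysates were incubated 4–24 h at room temperature with antibody mix, then HTRF was read at 320 nm excitation.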

The subject of a further assay is SW1900 cells (KRAS G12D). Briefly: 3D Cell viability assay in SW1900 cells (Biological Example 6). The format is cell-based. The note with it: Homo sapiens; SW1990 (text: SW1900, KRAS G12D) spheroids, 72 hours. The procedure: as §2, §3, §4, §5, §6, §7
For the next assay, the system named is H358 cells (KRAS G12C). The assay is described as follows: 3D Cell viability assay in H358 cells (Biological Example 6). The format is cell-based. The note with it: Homo sapiens, NCI-H358; H358 (KRAS G12C) spheroids, 72 hours. On the procedure:
as §2, §3, §4, §5, §6, §7

For the next assay, the system named is A549 cells (KRAS G12S). The assay is described as follows: 3D Cell viability assay in A549 cells (Biological Example 6). Type of assay: cell-based. The note with it: Homo sapiens; A549 (KRAS G12S) spheroids, 72 hours. On the procedure: as §2, §3, §4, §5, §6, §7
Another assay deals with HCT116 cells (KRAS G13D). The assay is described as follows: 3D Cell viability assay in HCT116 cells (Biological Example 6). The note with it: Homo sapiens, HCT-116; HCT116 (KRAS G13D) spheroids, 72 hours. The format is cell-based. On the procedure: as §2, §3, §4, §5, §6, §7
Another assay has as its system H1573 cells (KRAS G12A). The assay is described as follows: 3D Cell viability assay in H1573 cells (Biological Example 6). Type of assay: cell-based. The note with it: Homo sapiens, NCI-H1573; H1573 (KRAS G12A) spheroids, 72 hours. The procedure:
as §2, §3, §4, §5, §6, §7

The target of assay [3] is T3, Avi-KRAS G12D (1-169) GppNHp/RAF1 RBD-3xFLAG (52-151) (Homo sapiens, UniProt P01116, G12D).
T3 construct: Avi-KRAS G12D (1-169)
The assay is described as follows: Raf1-KRAS G12D-GppNHP disruption HTRF assay (Biological Example 1). Type of assay: binding. The note with it: KRAS G12D, GppNHp-loaded; Table 11. The essentials: as §1

In assay [4] the target is T4, Avi-KRAS G12R (1-169) GppNHp/RAF1 RBD-3xFLAG (52-151) (Homo sapiens, UniProt P01116, G12R).
T4 construct: Avi-KRAS G12R (1-169)
Briefly: Raf1-KRAS G12R-GppNHP disruption HTRF assay (Biological Example 1). Type of assay: binding. The note with it: KRAS G12R, GppNHp-loaded; Table 11. The essentials: as §1

A further assay deals with HT1080 cells (NRAS). The assay is described as follows: 3D Cell viability assay in HT1080 cells (Biological Example 6). Type of assay: cell-based. The note with it: Homo sapiens, HT-1080; HT1080 (NRAS) spheroids, 72 hours. The procedure: as §2, §3, §4, §5, §6, §7
Assay [5] has as its target T5, Avi-KRAS G12D (2-169) GTP/RAF1 RBD-3xFLAG (51-131) (Homo sapiens, UniProt P01116, G12D).
T5 construct: Avi-KRAS G12D (2-169)
The assay is described as follows: Raf1-KRAS G12D-GTP disruption HTRF assay (Biological Example 3). Type of assay: binding. The note with it: KRAS G12D, GTP-loaded. Put shortly: (§8)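 50 nM Avi-KRAS (2-169) GTP/RAF1 RBD complex; 75 nM RBD-Avi; pH 7.5 Tris buffer, 10% DMSO; cpd 30 μM top, 3x, 10 pts; 1 h RT, 700 rpm; HTRF, % of DMSO.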

In assay [6] the target is T6, Avi-KRAS G12C (2-169) GTP/RAF1 RBD-3xFLAG (51-131) (Homo sapiens, UniProt P01116, G12C).
T6 construct: Avi-KRAS G12C (2-169)
The assay is described as follows: Raf1-KRAS G12C-GTP disruption HTRF assay (Biological Example 3). The note with it: KRAS G12C, GTP-loaded. Type of assay: binding. The essentials:
as §8

For the next assay, the system named is SW620 cells (KRAS G12V). Briefly: Cell-based pERK HTRF assay in SW620 cell (Biological Example 4). The note with it: Homo sapiens, SW-620, SW620 (KRAS G12V) cells. The essentials: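 In SW620 cells grown in RPMI with 10% FBS, a 4 h compound treatment (0.25% DMSO, 9-point curve from 1 μM) preceded lysis. Phospho-ERK levels were then read by time-resolved FRET at 615 nm emission.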

Assay [7] concerns the target T7, Avi-KRAS WT (2-169) GTP/RAF1 RBD-3xFLAG (51-131) (Homo sapiens, UniProt P01116).
T7 construct: Avi-KRAS WT (2-169)
The assay is described as follows: Raf1-KRAS WT-GTP disruption HTRF assay (Biological Example 3). The format is binding. The note with it: KRAS WT, GTP-loaded. Put shortly: as §8

In assay [8] the target is T8, Avi-KRAS G12V (2-169) GTP/RAF1 RBD-3xFLAG (51-131) (Homo sapiens, UniProt P01116, G12V).
T8 construct: Avi-KRAS G12V (2-169)
The assay is described as follows: Raf1-KRAS G12V-GTP disruption HTRF assay (Biological Example 3). The note with it: KRAS G12V, GTP-loaded. Type of assay: binding. The essentials:
as §8

T6 sequence (P01116 2-169 isoform P01116-2 G12C): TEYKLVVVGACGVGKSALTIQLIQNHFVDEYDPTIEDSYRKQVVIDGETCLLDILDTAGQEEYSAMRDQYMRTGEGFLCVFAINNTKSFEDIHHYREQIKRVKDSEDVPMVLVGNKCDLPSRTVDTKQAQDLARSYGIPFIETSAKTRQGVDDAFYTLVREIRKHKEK
T5 sequence (P01116 2-169 isoform P01116-2 G12D): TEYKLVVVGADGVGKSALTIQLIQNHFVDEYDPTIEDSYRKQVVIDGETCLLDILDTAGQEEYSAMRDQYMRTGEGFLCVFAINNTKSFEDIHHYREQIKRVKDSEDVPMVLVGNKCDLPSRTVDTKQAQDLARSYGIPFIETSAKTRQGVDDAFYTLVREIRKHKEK
T8 sequence (P01116 2-169 isoform P01116-2 G12V): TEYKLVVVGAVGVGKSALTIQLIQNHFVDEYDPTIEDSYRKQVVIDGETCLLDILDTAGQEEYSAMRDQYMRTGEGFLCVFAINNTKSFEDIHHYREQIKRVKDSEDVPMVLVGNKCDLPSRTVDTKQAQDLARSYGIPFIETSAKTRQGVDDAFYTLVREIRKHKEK
T7 sequence (P01116 2-169 isoform P01116-2): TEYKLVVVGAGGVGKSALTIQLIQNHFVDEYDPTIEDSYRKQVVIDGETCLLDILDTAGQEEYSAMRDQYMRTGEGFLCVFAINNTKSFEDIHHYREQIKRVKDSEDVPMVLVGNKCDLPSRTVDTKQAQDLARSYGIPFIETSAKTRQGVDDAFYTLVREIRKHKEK
T4 sequence (P01116 1-169 isoform P01116-2 G12R): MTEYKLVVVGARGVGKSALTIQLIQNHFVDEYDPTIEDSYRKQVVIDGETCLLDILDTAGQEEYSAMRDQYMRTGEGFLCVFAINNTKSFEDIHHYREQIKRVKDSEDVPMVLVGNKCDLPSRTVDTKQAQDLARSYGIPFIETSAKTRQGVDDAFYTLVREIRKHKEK
T2 sequence (P01116 1-169 isoform P01116-2): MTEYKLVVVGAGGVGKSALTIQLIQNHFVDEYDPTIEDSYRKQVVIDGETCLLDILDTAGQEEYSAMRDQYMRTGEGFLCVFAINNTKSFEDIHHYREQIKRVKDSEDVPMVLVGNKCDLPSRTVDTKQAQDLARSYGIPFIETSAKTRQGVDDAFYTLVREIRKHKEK
T3 sequence (P01116 1-169 isoform P01116-2 G12D): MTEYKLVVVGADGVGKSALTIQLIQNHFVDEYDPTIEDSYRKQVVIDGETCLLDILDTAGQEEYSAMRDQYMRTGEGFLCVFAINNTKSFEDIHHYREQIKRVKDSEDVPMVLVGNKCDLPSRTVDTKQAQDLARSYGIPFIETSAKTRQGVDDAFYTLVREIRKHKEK
T1 sequence (P01116 1-169 isoform P01116-2 G12V): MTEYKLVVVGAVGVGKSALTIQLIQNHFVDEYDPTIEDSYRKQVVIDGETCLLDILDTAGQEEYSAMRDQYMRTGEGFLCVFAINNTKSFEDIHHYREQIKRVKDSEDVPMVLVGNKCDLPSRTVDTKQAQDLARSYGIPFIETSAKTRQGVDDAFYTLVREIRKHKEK

For `CN(C)c1nc(OC[C@@]23CCCN2C[C@H](F)C3)nc2c(F)c(-c3ccc(F)c4sc(N)c(C#N)c34)c(C(F)(F)F)cc12` [Compound 153], the 50% inhibitory concentration (IC50) is 100 to 1000 nM in assay [1]; 100 to 1000 nM with HPAC cells (KRAS G12D); 100 to 1000 nM in assay [2]; under 100 nM in the assay on GP2d cells (KRAS G12D) (pERK HTRF); 100 to 1000 nM in the assay on SW1900 cells (KRAS G12D); at most 100 nM with H358 cells (KRAS G12C). Further, the IC50 was at most 100 nM with A549 cells (KRAS G12S); 100 to 1000 nM in the assay with HCT116 cells (KRAS G13D); 100 to 1000 nM in the assay with H1573 cells (KRAS G12A); under 100 nM in assay [3]; 100 to 1000 nM in [4]; over 1000 nM in the assay on HT1080 cells (NRAS).
With `CCN(c1nc(OC[C@@]23CCCN2C[C@H](F)C3)nc2c(F)c(-c3ccc(F)c4sc(N)c(C#N)c34)c(C(F)(F)F)cc12)[C@H]1CCN(C(=O)c2ccc(C)s2)C1` (atropisomer, axis not shown) [Compound 911], the IC50 in [5] is 100 to 1000 nM; in [6] it was 100 to 1000 nM; in the assay on SW620 cells (KRAS G12V), under 100 nM; with GP2d cells (KRAS G12D), under 100 nM; in [7], 1000 to 10000 nM; in assay [8], 100 to 1000 nM.
In the case of `CN(c1nc(OC[C@@]23CCCN2C[C@H](F)C3)nc2c(F)c(-c3ccc(F)c4sc(N)c(C#N)c34)c(C(F)(F)F)cc12)[C@H]1CC(=O)N2CCC[C@@H]12` (atropisomer, axis not shown) [Compound 916], the half-inhibitory concentration (IC50) in assay [5] is 100 to 1000 nM; in [6], 100 to 1000 nM; with SW620 cells (KRAS G12V), under 100 nM; with GP2d cells (KRAS G12D), under 100 nM; in assay [7], 100 to 1000 nM; in assay [8], 100 to 1000 nM.
For the compound `CCN(c1nc(OC[C@@]23CCCN2C[C@H](F)C3)nc2c(F)c(-c3ccc(F)c4sc(N)c(C#N)c34)c(C(F)(F)F)cc12)[C@H]1CCN(C(=O)C2CC2(F)F)[C@@H]1C` (stereo partly drawn) [Compound 888], the IC50 in [5] is 100 to 1000 nM; in assay [6] it was 100 to 1000 nM; in the assay with SW620 cells (KRAS G12V) it was under 100 nM; in the assay with GP2d cells (KRAS G12D) it was under 100 nM; in assay [7] it was 100 to 1000 nM; in [8] it was 100 to 1000 nM.
On to `CCN(c1nc(OC[C@@]23CCCN2C[C@H](F)C3)nc2c(F)c(-c3ccc(F)c4sc(N)c(C#N)c34)c(C(F)(F)F)cc12)[C@H]1CCN(C(=O)[C@H]2C[C@@H](F)C2)C1` (atropisomer, axis not shown) [Compound 842], for which the IC50 in assay [5] is 100 to 1000 nM; in [6], 100 to 1000 nM; in the assay with SW620 cells (KRAS G12V), under 100 nM; in the assay with GP2d cells (KRAS G12D) it was under 100 nM; in assay [7] it was 100 to 1000 nM; in assay [8] it was 100 to 1000 nM.

The IC50 is the point on the concentration scale where inhibition reaches its midpoint. The low end stands for inhibition by little substance, the high end for a need for much substance.
